Experimental findings from patent US11952349B2, “Anti-cancer nuclear hormone receptor-targeting compounds” (Nuvation Bio Inc., priority 2019, dated 2024) are described below.

The experiment has as its target T1, AR in LNCaP cytosol (Homo sapiens, UniProt P10275, T878A).
T1 construct: AR in LNCaP cytosol was used; endogenous in cells; host or cells: LNCaP cells (cytosol)
T1 sequence (P10275 1-920 T878A): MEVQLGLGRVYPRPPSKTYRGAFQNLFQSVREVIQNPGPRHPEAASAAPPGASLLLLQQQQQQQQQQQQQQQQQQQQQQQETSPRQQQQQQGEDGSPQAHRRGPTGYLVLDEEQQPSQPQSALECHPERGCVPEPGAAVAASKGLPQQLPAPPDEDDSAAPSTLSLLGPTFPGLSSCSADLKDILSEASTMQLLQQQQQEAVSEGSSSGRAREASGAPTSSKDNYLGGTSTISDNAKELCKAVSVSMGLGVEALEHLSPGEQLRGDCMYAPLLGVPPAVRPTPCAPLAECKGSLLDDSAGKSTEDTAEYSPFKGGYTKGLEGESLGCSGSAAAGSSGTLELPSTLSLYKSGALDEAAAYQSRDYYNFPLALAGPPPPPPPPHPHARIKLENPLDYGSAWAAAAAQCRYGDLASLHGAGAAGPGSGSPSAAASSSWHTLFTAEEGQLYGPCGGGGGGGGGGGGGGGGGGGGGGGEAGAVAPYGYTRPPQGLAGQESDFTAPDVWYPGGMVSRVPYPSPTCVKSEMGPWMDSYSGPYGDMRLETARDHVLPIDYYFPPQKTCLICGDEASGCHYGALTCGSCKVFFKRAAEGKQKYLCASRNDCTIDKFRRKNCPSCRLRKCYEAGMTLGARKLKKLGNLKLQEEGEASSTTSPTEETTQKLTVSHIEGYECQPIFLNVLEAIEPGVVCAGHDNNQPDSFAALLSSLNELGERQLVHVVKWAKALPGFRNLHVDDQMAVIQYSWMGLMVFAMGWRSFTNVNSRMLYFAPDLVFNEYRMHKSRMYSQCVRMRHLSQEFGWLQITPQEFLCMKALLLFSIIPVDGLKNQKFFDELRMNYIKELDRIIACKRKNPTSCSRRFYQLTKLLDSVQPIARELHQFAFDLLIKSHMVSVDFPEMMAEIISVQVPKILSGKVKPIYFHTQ
As to the kind of experiment: AR binding assay, 3H-methyltrienolone (Biological Example 1). As to conditions: Table 6, in vitro NHR binding; Ki=IC50/(1+[L]/Kd), [L] 1 nM, Kd 0.332 nM. How it is done: The following methods are for evaluating the in vitro biology properties of the test articles. • a. RBC HotSpot Poly(ADP-ribose) Polymerases 1 (PARP1) and Poly(ADP-ribose) Polymerases 2 (PARP2) Assays: The assay was conducted at Reaction Biology Corporation (RBC; Malvern, PA). The assay principle is radioisotope-based filter binding assay where incorporation of radioisotope-labeled NAD^+ into the substrate captured on filter is detected after washout free NAD^+. Data were analyzed using Excel and GraphPad Prism software for IC50 curve fits. Each assay was conducted with PJ34 as a positive control. […] After incubation for 2 hrs at room temperature, the reaction mixture was filtered and washed with 0.75% phosphoric acid for radioactivity detection. • ii. […] After incubation for 2 hrs at room temperature, the reaction mixture was filtered and washed with 0.75% phosphoric acid for radioactivity detection. • b. […] IC50 s were determined using 8 concentrations/compound. […] Radioactivity is counted using a TriCarb 2910 TR scintillation counter (PerkinElmer). […] The Ki values were further calculated using the equation below where [L] is the radioligand concentration (1 nM) used in this study. […]

Turning to `Cn1ncnc1C1c2n[nH]c(=O)c3cc(F)cc(c23)N[C@@H]1c1ccc(NC(=O)CCCCCO[C@@H]2CC[C@H]3[C@@H]4CC[C@H]5CCCC[C@]5(C)[C@H]4CC[C@]23C)cc1` (stereo partly drawn) [Compound 1128, 6-((5R,8R,9S,10S,13S,14S,17R)-10,13-dimethylhexadecahydro-1H-cyclopenta[a]phenanthren-17-yloxy)-N-(4-((8S)-5-fluoro-9-(1-methyl-1H-1,2,4-triazol-5-yl)-3-oxo-3,7,8,9-tetrahydro-2H-pyrido[4,3,2-de]phthalazin-8-yl)phenyl)hexanamide], the Ki (as a rule, a dissociation constant, usually derived from enzyme kinetics or from competition with a known ligand) was > 7.47 µM.
